Each structure is given as a SMILES string.

Here are results for 1 compound from patent publication US20060206946A1, “Method of disrupting heme transport in nematodes and of modelling and evaluating eukaryotic heme transport” (priority 2005, published 2006).

One test has as its system C. elegans mutant IH1048. Put plainly: Growth of heme resistant mutant in CeHR medium. Type of test: in vivo, Caenorhabditis elegans. Also noted: key to Growth 1.6 μM hemin / Growth 0.5 μM GaPP: + = wild type equivalent In growth; ND: No growth. As for the experimental part: (§1) To further increase the stringency of our genetic screen we split the contents from each 800 μM hemin selection flasks into two flasks containing either 800 μM or 1000 μM hemin. This allowed us to use another tier of positive selection to identify mutants with greater resistance to heme toxicity. Mutants from each flask were isolated and treated as a separate entity by giving an identification number based on the Genetic Nomenclature Guidelines used for C. elegans (http://biosci.umn.edu/CGC/Nomenclature/nomenguid.htm). To eliminate EMS-induced spurious mutations that could result in false positive, the mutants were outcrossed to wild-type N2 males. After five outcrosses, which replaces ˜97% of the mutant genome, mutants that bred true were selected for further analysis. Using this procedure, we isolated 13 individual mutants that were resistant to heme toxicity. These mutants were further characterized by analyzing Mendelian segregation ratios, X-linkage, phenotype penetrance, generation times, brood size, and their ability to grow under low hemin. […] This observation was surprising because we anticipated that high heme-resistant mutants will grow poorly under low heme. Based on the mutant's growth profile at low and high heme levels, we broadly categorized them into three phenotypic classes: class A, class B and class C (FIG. 13). These “phenoclusters” have the following growth phenotype: (a) three mutants IH728, IH938, IH731 show with robust growth under low and high (≧800 μM heme (FIG. 13B), (b) one mutant IH828 show exceptional growth under low heme, moderate growth at ≦800 μM heme, and no growth at 1000 μM hemin (FIG. 13C), and (c) six mutants IH921, IH11058, IH1068n, IH1068d, IH1048, and IH718 that show moderate growth under high heme (≦800 μM), but normal growth under low heme (FIG. 13D). By classifying these mutants into phenoclusters, we can focus our efforts on the phenotypic datasets to map the molecular networks and pathways involved in heme dependent processes. For instance, mutants in a cluster may have mutations within the same gene or in multiple genes but within the same pathway.
(§2) Worm Culture and Growth Assays. Free-living worms were cultured in CeHR axenic liquid medium (Dr. Eric Clegg, Personal Communication). […] CeHR medium was modified (henceforth called mCeHR) to eliminate all sources of exogenously added heme; basal growth medium comprised 20 μM hemin chloride (Frontier Scientific, Logan, Utah) and 150 μM of ferrous ammonium sulfate (Sigma Chemicals). Worm strains were grown in mCeHR medium under aerobic conditions in tissue culture flasks at 20° C. ˜3.7×10^6 worms were routinely obtained after 3.5 to 4 days in a T75 flask with 30 ml basal medium from an initial inoculum of −1.5×10^5 worms. For initial culturing of worms in axenic media, three generations of worms were sequentially bleached (1.1% bleach/0.55 M NaOH) to eliminate any contaminating bacterial carryover from agar plates. In all dose-response experiments, worms were growth synchronized by treating the gravid hermaphrodite worms with bleach to dissolve adult worms. The eggs, resistant to bleach, were liberated from the carcasses and extensively washed with M9 buffer followed by overnight hatching in M9 buffer to synchronize growth. By harvesting at appropriate time intervals, synchronous larval stages and adult staged worms were collected for experimental manipulations. Identical numbers of synchronized L1 larvae were inoculated into media with different heme concentrations in 12- or 24-well culture plates. Worm growth was monitored each day and an aliquot was obtained for counting by microscopy usually at days 3, 6, and 9. The worms in each well were counted twice and each growth condition was analyzed in triplicate. P values for statistical significance were calculated utilizing a one-way ANOVA with Student-Newman-Keuls multiple comparison test using GraphPad Instat version 3.01. […]

The subject of test [1] is C. elegans mutant IH1068 d. Put plainly: Growth of heme resistant mutant in CeHR medium. Also noted: key to Growth 1.6 μM hemin / Growth 0.5 μM GaPP: + = wild type equivalent In growth; ND: No growth. The test is classed as in vivo, Caenorhabditis elegans. As for the experimental part: as §1, §2
The test system of test [2] is C. elegans mutant IH1068 n. The test is described as follows: Growth of heme resistant mutant in CeHR medium. The test is classed as in vivo, Caenorhabditis elegans. More on the design: key to Growth 1.6 μM hemin / Growth 0.5 μM GaPP: + = wild type equivalent In growth; ND: No growth. As for the experimental part:
as §1, §2

In test [3] the test system is C. elegans wild-type N2 strain. Put plainly: Worm culture and growth assay in axenic CeHR/mCeHR liquid medium. Also noted: key to Growth 1.6 μM hemin / Growth 0.5 μM GaPP: + = wild type equivalent In growth; ND: No growth. The test is classed as in vivo. As for the experimental part: (D) Biphasic response of C. elegans cultured in the presence of increasing amounts of hemin chloride (μM). Equal numbers of synchronized L1 larvae were grown in 24-well plates in mCeHR medium for 9 days and quantified (worms/μl) by microscopy. Each data point represents the mean±SD from three separate experiments performed in triplicate.
(A) Aerobic growth of C. elegans in mCeFIR medium with 20 μM hemin supplemented with either gallium protoporphyrin IX (GaPP) or gallium salts. Synchronized L1 larvae were grown for 9 days in 24-well plates and quantified (worms/μl) by microscopy. Each data point represents the mean from a single experiment, and each experiment was performed in triplicate. Inset depicts the GaPP analysis at lower concentrations for clarity.
(B) Effect of heme on the cytotoxicity of GaPP. Synchronized L1 larvae were inoculated in 24-well plates containing mCeHR medium with either 0, 2, 4, or 6 μM GaPP and increasing hemin (μM). The number of worms per μl was measured on day 9 and the data are presented as mean±SD.
FIG. 9 depicts worm utilization of heme-iron under iron deprivation. Equal numbers of synchronized L1 larvae were grown in the presence of 4, 20, and 100 μM hemin, either in basal mCeHR medium (set 1), or basal medium lacking exogenous iron (set 2), or as set 2 with 1 μM of the iron chelator ferrozine (set 3), or as set 3 with 486 μM ferrous ammonium sulfate (set 4). These values of ferrozine and iron were empirically determined by performing dose-response experiments and analyzing worm growth. The number of worms per μl was measured on day 9 and the data presented as mean±SD performed in triplicate. P<0.001 between sets 1 and 3.
To qualitatively and quantitatively determine the heme requirement of C. elegans, we assessed growth at various heme concentrations. Equal numbers of L1 larvae were inoculated in CeHR medium with either no cytochrome c and hemin, or with cytochrome c and increasing amounts of hemin (FIG. 4A). The effect of hemin became apparent within 48 hours and by 9 days, the heme-deplete worms were severely growth retarded at the L1/L2 stages. […] However, this stimulatory effect of heme was toxic to worms grown at heme concentrations >750 μM. To quantitatively assess the effect of heme on worms, we counted the number of live worms grown under different concentration of heme using DIC microscopy. […] On the basis of this association between heme and the growth and reproduction of C. elegans, we conclude that the biphasic nature of heme is likely due to the need for heme under heme-deprived conditions to perform essential metabolic functions, and the lethality of heme at high concentrations can be attributed to its cytotoxic activity.
as §2, with “manipulations.” for “manipulations. Identical numbers of synchronized L1 larvae were inoculated into media with different heme concentrations in 12- or 24-well culture plates. Worm growth was monitored each day and an aliquot was obtained for counting by microscopy usually at days 3, 6, and 9. The worms in each well were counted twice and each growth condition was analyzed in triplicate. P values for statistical significance were calculated utilizing a one-way ANOVA with Student-Newman-Keuls multiple comparison test using GraphPad Instat version 3.01.”

Another test deals with C. elegans mutant IH718. Put plainly: Growth of heme resistant mutant in CeHR medium. The test is classed as in vivo, Caenorhabditis elegans. More on the design: key: + = wild type equivalent In growth; ND: No growth. As for the experimental part:
To further increase the stringency of our genetic screen we split the contents from each 800 μM hemin selection flasks into two flasks containing either 800 μM or 1000 μM hemin. This allowed us to use another tier of positive selection to identify mutants with greater resistance to heme toxicity. Mutants from each flask were isolated and treated as a separate entity by giving an identification number based on the Genetic Nomenclature Guidelines used for C. elegans (http://biosci.umn.edu/CGC/Nomenclature/nomenguid.htm). To eliminate EMS-induced spurious mutations that could result in false positive, the mutants were outcrossed to wild-type N2 males. After five outcrosses, which replaces ˜97% of the mutant genome, mutants that bred true were selected for further analysis. Using this procedure, we isolated 13 individual mutants that were resistant to heme toxicity. […]
Worm Culture and Growth Assays. […] Worm growth was monitored each day and an aliquot was obtained for counting by microscopy usually at days 3, 6, and 9. The worms in each well were counted twice and each growth condition was analyzed in triplicate. P values for statistical significance were calculated utilizing a one-way ANOVA with Student-Newman-Keuls multiple comparison test using GraphPad Instat version 3.01. […]

The next test deals with C. elegans mutant IH828. The test is described as follows: Growth of heme resistant mutant in CeHR medium. Type of test: in vivo, Caenorhabditis elegans. The following applies: in vivo. As for the experimental part:
as §1, §2

For the compound `C=CC1=C(C)C2=[N+]3C1=Cc1c(C)c(C=C)c4[n]1[Ga-]31[n]3c(c(C)c(CCC(=O)O)c3=CC3=[N+]1C(=C4)C(C)=C3CCC(=O)O)=C2` (centres unmarked) [GaPP, gallium protoporphyrin IX], the “Growth 0.5 μM GaPP” value (in the test on C. elegans mutant IH1048; in test [1]; in test [2]; in test [3] (Control Wild-type (N2)); in the test on C. elegans mutant IH718) was “+” in each case. In test [3] (0, 2, 4 or 6 μM GaPP, day 9), the “toxic effect of GaPP in the presence of increasing levels of hemin” value is “attenuated”. In test [3] (4 μM hemin), the “toxicity rank among six non-iron metalloporphyrins tested” value is reported as “most toxic heme analog”. Besides, the figures for the “sensitivity compared to hemin” value in test [3] (F1 progeny) and in test [3] (P0 worms) were 3,200 fold and 800 fold, respectively. Also, the “GaPP concentration at which worms were growth arrested” value in test [3] (F1 progeny of surviving P0 worms grown at lower GaPP) came out at 0.25 µM. In test [3] (P0 and F1 animals), the “toxicity relative to hemin” value was 800-3000 times. The “GaPP concentration at which worms were growth retarded” value in test [3] (P0 worms, medium with hemin) worked out at 1 µM. Moreover, in test [3] (in vivo), the “sensitivity of worms to GaPPIX compared to heme” value was 30 times. In the test on C. elegans mutant IH828, the “resistance of IH828 to GaPP toxicity” value is “extremely resistant”.
